In PMC8391236, “Effect of Pterostilbene, a Natural Derivative of Resveratrol, in the Treatment of Colorectal Cancer through Top1/Tdp1-Mediated DNA Repair Pathway” (Cancers, 2021):

Columns and labels:
Tdp1-over CL187 cells = experiment: Cell viability of Tdp1-overexpressing cells; type: cell-based, Human; conditions: Tdp1-over CL187; CPT 0.5 μM, FM 25 μM
Method: CL187 cells were cultured on 6-cm dishes at 37 °C for 24 h. The plasmid (2.5 μg) was diluted with 125 μL serum-free medium Opti-MEM, mixed gently, and incubated at room temperature for 5 min. Lipo 3000 (Invitrogen, Waltham, MA, USA) were diluted with 125 μL serum-free medium Opti-MEM, mixed and incubated for 5 min. Mixed the plasmid and Lipo 3000, incubated at room temperature for 20 min, the mixture was added to CL187 cells, the Tdp1 overexpressed plasmid were transfected into CL187 cells.
PTE or RE were dissolved in DMSO and diluted with culture medium to 1–100 μM. The final concentration of DMSO was less than 0.1%, and 0.1% DMSO as negative control. CPT, as Top1 inhibitor, was diluted to 0.5 μM [36, 37], and FM, as Tdp1 inhibitor was diluted to 25 μM [38]. Exponentially growing cells were seeded in 96-well plates (5 × 10^3 cells/well) for 12 h. […] Cell viability was determined by CCK-8 (Beyotime Biotechnology, Shanghai, China) assay. Cell viability and inhibition rate were calculated with the following formulae:Cell viability (%) = [OD450 (sample)/OD450 (control)] × 100(1) Inhibition rate (%) = […] − cell viability (%)(2)
The drug concentration required for inhibiting cell proliferation by 50% (IC50) was determined by interpolation from dose-response curves.

Top1 in CL187 cells [1] = biological target: Top1 in CL187 cells (Homo sapiens, UniProt P11387); experiment: Intracellular Top1 enzyme activity assay; type: cell-based; design: endogenous in cells; host or cells: CL187 cells (nuclear, mitochondrial and cytoplasmic extracts); conditions: CL187 cells treated 6 h; CPT at 50 μM
Method: (§1) CL187 cells were treated with different concentrations of drugs for 6 h. The supernatant was discarded, and the cells were collected. The extracts of cytoplasm, mitochondria, and nucleus were obtained by the same method as described in Section 2.4.7. The protein concentration of each extract was detected by BCA kit. Enzyme activity reaction was carried out by using 125 ng super helical DNA (pHOT-1) and cell extract. The protein concentration of the extract was guaranteed to be the same in each group. The mixture solution of the pHOT-1 and the cell extract was added into the reaction buffer and incubated for 30 min at 37 °C. The reaction was terminated with loading buffer. The agarose gel electrophoresis was performed, and the images were collected.

siRNA-Top1 CL187 cells = experiment: Cell viability of Top1-silenced cells; type: cell-based, Human; conditions: siRNA-Top1 CL187; CPT 0.5 μM, FM 25 μM
Method: (§2) PTE or RE were dissolved in DMSO and diluted with culture medium to 1–100 μM. The final concentration of DMSO was less than 0.1%, and 0.1% DMSO as negative control. […] Exponentially growing cells were seeded in 96-well plates (5 × 10^3 cells/well) for 12 h. Various drugs were added separately and incubated for 24, 48, and 72 h. Cell viability was determined by CCK-8 (Beyotime Biotechnology, Shanghai, China) assay.

Top1 in CL187 cells [2] = experiment: Intracellular Top1 enzyme activity assay; type: cell-based, Human; conditions: CL187 cells treated 6 h
Method: as §1

siRNA-Tdp1 CL187 cells = experiment: Cell viability of Tdp1-silenced cells; type: cell-based, Human; conditions: siRNA-Tdp1 CL187, CPT 0.5 μM; for sensitivity / efficacy of positive controls: FM 25 μM
Method: as §2

Top1 = biological target: T1, Top1 (Homo sapiens, UniProt P11387); experiment: Direct Top1 enzyme activity (DNA relaxation) assay; type: biochemical; conditions: gel electrophoresis
T1 construct: purchased TopoGEN, Buena Vista, CO, USA
T1 sequence (P11387 1-765): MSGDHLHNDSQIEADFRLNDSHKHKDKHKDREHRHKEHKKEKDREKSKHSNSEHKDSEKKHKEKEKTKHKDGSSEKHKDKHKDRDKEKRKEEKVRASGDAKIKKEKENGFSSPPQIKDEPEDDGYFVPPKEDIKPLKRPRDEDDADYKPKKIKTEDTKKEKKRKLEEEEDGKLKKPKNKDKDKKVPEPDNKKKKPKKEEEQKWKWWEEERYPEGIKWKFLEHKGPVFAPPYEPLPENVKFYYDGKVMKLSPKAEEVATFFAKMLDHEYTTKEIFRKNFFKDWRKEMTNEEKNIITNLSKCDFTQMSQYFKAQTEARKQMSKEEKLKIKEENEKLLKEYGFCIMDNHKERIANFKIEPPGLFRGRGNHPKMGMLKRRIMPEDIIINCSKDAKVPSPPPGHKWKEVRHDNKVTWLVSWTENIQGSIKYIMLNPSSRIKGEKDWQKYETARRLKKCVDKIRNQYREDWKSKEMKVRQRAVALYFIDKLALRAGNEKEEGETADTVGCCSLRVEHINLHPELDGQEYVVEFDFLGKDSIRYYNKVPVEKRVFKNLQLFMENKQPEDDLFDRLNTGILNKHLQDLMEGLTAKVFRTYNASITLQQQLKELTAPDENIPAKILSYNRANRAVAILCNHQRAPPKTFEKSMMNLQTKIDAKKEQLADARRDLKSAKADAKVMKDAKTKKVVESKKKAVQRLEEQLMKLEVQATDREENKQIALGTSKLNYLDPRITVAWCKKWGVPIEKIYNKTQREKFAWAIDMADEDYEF
Method: Different concentrations of the drug solution were prepared. The solvent was used as negative control group, and CPT (50 μM) was used as the positive control group. Each sample included 2 units of Top1 (TopoGEN, Buena Vista, CO, USA) and 250 ng super helical DNA (pHOT-1, TopoGEN, Buena Vista, CO, USA). The samples were incubated for 30 min at 37 °C, and then the reaction was stopped with SDS. After digestion with proteinase K (50 μg/mL, 60 min at 37 °C), samples were separated through electrophoresis (1% agarose gel). The electrophoresis was conducted at 180 V constant pressure for 20 min. The gel was immersed in the dye without EB for 30 min, and the images were collected by gel imaging system (Tanon-1600B, Shanghai, China).

[3] = test system: liver, kidney, lung, and paracancerous colon tissues; experiment: HE staining of organs of orthotopic xenograft mice; type: in vivo; conditions: orthotopic xenograft nude mice
Method: (§3) The mice were anaesthetized with 10% chloral hydrate and fixed on the operating table. After the abdomen of the mice was disinfected with iodine, a small section of the large intestine was squeezed out of the surgical opening. The 0.1 mL (per mouse) CL187 cell suspension (1 × 10^7 /mL) was inoculated into the colon wall of nude mice. After the inoculation, the large intestine was placed into the mouse abdominal cavity. After the wound was sutured, the mice were put into cages until they naturally woke up. After 10 days of inoculation, the animals were randomly divided into 4 groups (6 mice per group). Vector control group was intraperitoneally injected with 5% DMSO and 95% saline containing 30% HP-β-CD (i.p.). The drug dosage was designed according to the results of the previous pharmacokinetic experiment. Experimental Group 1 was intraperitoneal injected (i.p.) with PTE 100 mg/kg, and experiment Group 2 was intragastric administrated (i.g.) with PTE 500 mg/kg, once a day. The bioavailability of PTE was the same in the animals in the above regimens. Positive control group was injected with irinotecan, 20 mg/kg, twice a week. During the experiment, the changes of body weight of nude mice were recorded. After 21 days, the nude mice were sacrificed, the tumor blocks were removed surgically, weighed, and recorded. Tumor and organ tissues were paraffin-embedded and sectioned into 4 mm after being fixed in 4% of paraformaldehyde solution for 24 h. The sections were deparaffinized and rehydrated before detection. For histological observation, tumor sections were stained with hematoxylin and eosin (HE), and then observed by an inverted microscopy (Olympus, Japan).

[4] = test system: orthotopic CL187 xenograft; experiment: Orthotopic CL187 xenograft model; type: in vivo, BABLc/nude mice
Method: as §3, with “recorded.” for “recorded. Tumor and organ tissues were paraffin-embedded and sectioned into 4 mm after being fixed in 4% of paraformaldehyde solution for 24 h. The sections were deparaffinized and rehydrated before detection. For histological observation, tumor sections were stained with hematoxylin and eosin (HE), and then observed by an inverted microscopy (Olympus, Japan).”
Tumor and organ tissues were paraffin-embedded and sectioned into […] after being fixed in 4% of paraformaldehyde solution for 24 h. The sections were deparaffinized and rehydrated before detection. For histological observation, tumor sections were stained with hematoxylin and eosin (HE), and then observed by an inverted microscopy (Olympus, Japan).
For immunohistochemistry analysis, the sections were treated with 3% hydrogen peroxide for 10 min to block endogenous peroxidase, and then incubated with Ki67 primary antibody for overnight at 4 °C. Subsequently, the sections were treated with secondary antibody at room temperature for 20 min. After being washed with PBS, the sections were incubated with DAB chromogenic solution for 10 min, followed by rewashing in PBS. The sections were counterstained with hematoxylin after DAB coloration. The antibody specificity was confirmed by negative control without primary antibody treatment. Immunopositive areas were observed by an inverted microscope (Olympus, Japan).

[5] = test system: subcutaneous CL187 xenograft; experiment: Subcutaneous CL187 xenograft model; type: in vivo, BABLc/nude mice
Method: CL187 cell suspension was collected at 1 × 10^6 /mL, and 0.1 mL cell was inoculated into the right inguinal region of nude mice. The tumor was no metastasis. The diameter of the transplanted tumor in nude mice was measured with a vernier caliper. After 16-day inoculation (the tumor grew to 90 mm^3), the animals were randomly divided into 7 groups (6 mice per group). The drug was administered by intraperitoneal injection. Blank control group was injected with saline. […] According to the preliminary test results. […] Positive control group was injected with irinotecan (20 mg/kg) twice a week, During the experiment, the changes of body weight of nude mice were recorded, and the anti-tumor effect of the samples was dynamically investigated by measuring tumor diameter. On Day 31 post treatment, the nude mice were sacrificed, and the tumor blocks were removed surgically, weighed, and recorded.

[6] = 20 mg/kg-i.p. twice a week, 21 days

Row | Compound | sensitivity / response of cells to positive controls (Tdp1-over CL187 cells) | Top1 enzyme activity in the nucleus (Top1 in CL187 cells [1]) | inhibitory effect on cell proliferation of positive controls (siRNA-Top1 CL187 cells) | concentration with the same inhibitory effect on intracellular Top1 enzyme activity (Top1 in CL187 cells [2]; cell extracts + SC DNA) [µM] | Top1 enzyme activity in mitochondria (Top1 in CL187 cells [2]; CPT at 50 μM) | inhibition at 0.5 µM (siRNA-Tdp1 CL187 cells; Homo sapiens, read-out: cell inhibition rate) [%] | sensitivity / efficacy of positive controls (siRNA-Tdp1 CL187 cells) | inhibition of Top1 enzyme activity (SC DNA relaxation) (Top1; 30 min incubation, CPT at 50 uM) | concentration exhibiting the same inhibitory effect on Top1 enzyme activity (Top1; relaxation of supercoiled pHOT-1 DNA, 30 min) [µM] | effect on lung inflammation (HE sections) [3] | degree of tumor necrosis (HE) ([4]; 20 mg/kg-i.p.) | Tumor Inhibitory Rate [4, 6] [%] | Tumor Weight [4, 6] [g] | Ki67 labeling rate in tumor tissue ([4]; 20 mg/kg-i.p., vector control 46.53±3.86%) [%] | Tumor Weight ([5]; 20 mg/kg i.p. twice a week, Day 31) [g] | adverse reactions during the entire treatment process ([5]; subcutaneous CL187 xenograft nude mice, CPT-11 20 mg/kg, PTE 25-200 mg/kg i.p.)
1 | CC[C@@]1(O)C(=O)OCc2c1cc1n(c2=O)Cc2cc3ccccc3nc2-1 [CPT, camptothecin, reference compound] | significantly reduced | significantly inhibited | hardly exhibited inhibitory effect on cell proliferation | 50 | significantly inhibited | ~90 | significantly increased | could inhibit Top1 enzyme activity | 50 |  |  |  |  |  |  | 
2 | CCc1c2c(nc3ccc(OC(=O)N4CCC(N5CCCCC5)CC4)cc13)-c1cc3c(c(=O)n1C2)COC(=O)[C@]3(O)CC [CPT-11, irinotecan] |  |  |  |  |  |  |  |  |  | could aggravate the inflammatory response | +++ (+++ denotes the ratio between 1/2 and 3/4) | 62.91 ± 11.78 | 0.81 ± 0.20 | 22.46 ± 6.78 | 1.18 ± 0.12 | severe diarrhea, lassitude, and other adverse reactions
3 | Cl.Cl.N=C(N)c1ccc(-c2ccc(-c3ccc(C(=N)N)cc3)o2)cc1 [FM, Furamidine dihydrochloride, reference compound] | good response |  | significantly enhancing the inhibitory effect on the cells |  |  |  | failed to exert its efficacy |  |  |  |  |  |  |  |  | 
